According to publication PMC11984392, “EphA2-targeted alpha-particle theranostics for enhancing PDAC treatment” (Theranostics, 2025):
Read-outs that look alike come from different tables or passages of the source. *1 amine or outer side, *2 acyl side, *3 side chain or, on linkers, in order; H or OH if unused. Where a SMILES comes first, the peptide text is derived from it. Bridges are numbered along the chain shown (N, C = ends). [ ]: non-standard residue; d: D form. The star is where a group is joined. TATA = O=C(CC[*:1])N1CN(C(=O)CC[*:2])CN(C(=O)CC[*:3])C1; NOTA = O=C(O)CN1CCN(CC(=O)O)CCN(CC(=O)*)CC1; Hyp = O=C(O)[C@@H]1C[C@@H](O)CN1; hArg = N=C(N)NCCCC[C@H](N)C(=O)O; PEG2 = NCCOCCOCCC(=O)O; Sar = CNCC(=O)O

Legend:
[1] = Ex vivo biodistribution; type: in vivo, NSG mice; details: both sexes, NSG, mouse, total radioactivity, 60 min p.i., mean ± SEM (n = 4 or 5)
Procedure: (§1) Animal studies were performed under Johns Hopkins University Animal Care and Use Committee (ACUC)-approved protocol (Principal investigator: Sridhar Nimmagadda, Ph.D. and Protocol number M021M175). Male and Female NSG mice (5-6 weeks old) were purchased from JHU immunocompromised core and used to establish xenografts by administering cells subcutaneously (top right flank, unless otherwise noted) to form various tumor models within 3-4 weeks. Following cell numbers were used: Panc1, AsPC1, BxPC3 (1 M), Hs766T and SU8686 (2 M), CFPAC and Panc1005 (5 M). Imaging or biodistribution studies (n = 3-5) were conducted on mice with tumor volumes of 100-200 mm^3. The Panc1 orthotopic tumor model was established by surgically implanting a 3-5 mm^3 section of Panc1 tumor xenograft directly onto the pancreas. The implanted tumors were allowed to grow and were ready for imaging after 10 days of implantation.
(§2) Mice with 100-200 mm^3 tumor volume were used for ex vivo biodistribution studies. For radiotracer pharmacokinetics and dosimetry studies, mice with Panc1 tumor xenograft received ~80 µCi (2.96 MBq) [^68Ga]AJ201 and were sacrificed at pre-determined time points (5, 30, 60, 90 and 120 min). All other mice were injected with ~50 µCi (1.85 MBq; 0.2 to 0.5 nmol) Ga-68 labeled radiotracer and were sacrificed at 60 min. The selected tissues were collected, weighed, counted, and their %ID/g values calculated for biodistribution analysis. For pharmacokinetics and dosimetry studies, selected tissues included blood, muscle, tumor, thymus, heart, lung, liver, pancreas, stomach, small intestine, large intestine, spleen, adrenals, kidney, bladder, femur, brain and tumor xenografts. For other studies, selected tissues were blood, muscle, tumor, heart, lung, liver, pancreas, small intestine, spleen, kidney.

[2] = system: CFPAC tumor xenografts; assay: Ex vivo biodistribution; type: in vivo, NSG mice; details: CFPAC xenograft; 60 min p.i.; mean ± SEM (n = 4 or 5)
Procedure: as §1, §2

[3] = system: KPC syngeneic tumor; assay: Ex vivo biodistribution; type: in vivo, mice; details: KPC syngeneic tumor; 60 min p.i.; mean ± SEM (n = 5)
Procedure: as §2

[4] = PET-MR imaging of Panc1 orthotopic tumor model; type: in vivo, mice; details: both sexes, NSG, mouse, iv, total radioactivity, PET/MR 60 min p.i., ROI (n = 4)
Procedure: as §1
Mice having orthotopic panc1 tumors were injected intravenously with [^68Ga]AJ201 and PET images were acquired at 60 min after radiotracer injection for 10 min in 1 bed positions (full body) and whole-body MRI using a Simultaneous 7T Bruker PET-MR. The PET data were acquired, reconstructed, and corrected for radioactive decay using ParaVision 360 V2 by Bruker. The %ID per cc values were obtained after drawing ROI (regain of interest) in tumor and muscle using PMOD software. […]

Question: What does the source list for `CC(C)C[C@@H]1NC(=O)[C@@H]2CSCCC(=O)N3CN(CN(C3)C(=O)CCSC[C@H](NC(=O)[C@H](CC(=O)O)NC(=O)[C@H](CCCCNC(=N)N)NC(=O)[C@H](C)NC(=O)CNC(=O)CN(C)C(=O)CN(C)C(=O)CN(C)C(=O)[C@H](CCCNC(=N)N)NC(=O)CNC(=O)CCOCCOCCNC(=O)CN3CCN(CC(=O)O)CCN(CC(=O)O)CC3)C(=O)N3C[C@H](O)C[C@H]3C(=O)N[C@@H](CC(C)C)C(=O)N[C@@H](C(C)C)C(=O)N[C@@H](CC(N)=O)C(=O)N3CCC[C@H]3C(=O)N[C@@H](CC(C)C)C(=O)N2)C(=O)CCSC[C@@H](C(N)=O)NC(=O)[C@H](CCCCNC(=N)N)NC(=O)[C@H](Cc2c[nH]c3ccccc23)NC(=O)[C@@H](CC(=O)O)NC(=O)[C@@H]2CCCN2C(=O)[C@H](Cc2c[nH]cn2)NC1=O` [[^68Ga]AJ201, metal not drawn] ({NOTA-PEG2}-GR[Sar][Sar][Sar]GA[hArg]DC[Hyp]LVNPLCLHP[dD]W[hArg]C-NH2; linker 10-17-24 via TATA)?
Answer: tissue uptake at 1 h ([1]; pancreas, Su8686 xenograft, read-out: Pancreas uptake): 0.22 ± 0.05 %ID/g; tissue uptake at 1 h ([1]; small intestine, AsPC1 xenograft, read-out: Small intestine uptake): 1.12 ± 0.08 %ID/g; tissue uptake at 1 h ([1]; small intestine, BxPC3 xenograft, read-out: Small intestine uptake): 0.32 ± 0.02 %ID/g; tissue uptake at 1 h ([1]; small intestine, Hs766T xenograft, read-out: Small intestine uptake): 0.62 ± 0.02 %ID/g; tissue uptake at 1 h ([1]; small intestine, Panc1005 xenograft, read-out: Small intestine uptake): 0.25 ± 0.03 %ID/g; tissue uptake at 1 h ([1]; small intestine, Su8686 xenograft, read-out: Small intestine uptake): 0.29 ± 0.05 %ID/g; tissue uptake at 1 h ([1]; spleen, AsPC1 xenograft, read-out: Spleen uptake): 1.61 ± 0.11 %ID/g; tissue uptake at 1 h ([1]; spleen, BxPC3 xenograft, read-out: Spleen uptake): 0.64 ± 0.05 %ID/g; tissue uptake at 1 h ([1]; spleen, CFPAC xenograft, read-out: Spleen uptake): 0.87 ± 0.15 %ID/g; tissue uptake at 1 h ([1]; spleen, Hs766T xenograft, read-out: Spleen uptake): 2.75 ± 0.65 %ID/g; tissue uptake at 1 h ([1]; spleen, Panc1005 xenograft, read-out: Spleen uptake): 0.52 ± 0.05 %ID/g; tissue uptake at 1 h ([1]; spleen, Su8686 xenograft, read-out: Spleen uptake): 0.6 ± 0.16 %ID/g; tissue uptake at 1 h ([1]; tumor, 50 uCi, CFPAC xenograft, read-out: Tumor uptake): 2.4 ± 0.2 %ID/g; tissue uptake at 1 h ([1]; tumor, AsPC1 xenograft, read-out: Tumor uptake): 4.01 ± 0.46 %ID/g; tissue uptake at 1 h ([1]; tumor, BxPC3 xenograft, read-out: Tumor uptake): 2.72 ± 0.37 %ID/g; tissue uptake at 1 h ([1]; tumor, Hs766T xenograft, read-out: Tumor uptake): 7.97 ± 2.83 %ID/g; tissue uptake at 1 h ([1]; tumor, Panc1005 xenograft, read-out: Tumor uptake): 5.31 ± 0.9 %ID/g; tissue uptake at 1 h ([1]; tumor, Su8686 xenograft, read-out: Tumor uptake): 7.66 ± 1 %ID/g; tissue to tissue ratio at 1 h ([1]; tumor/blood, AsPC1 xenograft, read-out: Tumor/blood ratio): 1.2 ± 0.06; tissue to tissue ratio at 1 h ([1]; tumor/blood, BxPC3 xenograft, read-out: Tumor/blood ratio): 4.86 ± 0.92; tissue to tissue ratio at 1 h ([1]; tumor/blood, CFPAC xenograft, read-out: Tumor/blood ratio): 4.53 ± 0.9; tissue to tissue ratio at 1 h ([1]; tumor/blood, Hs766T xenograft, read-out: Tumor/blood ratio): 5.47 ± 0.81; tissue to tissue ratio at 1 h ([1]; tumor/blood, Panc1005 xenograft, read-out: Tumor/blood ratio): 12.9 ± 2.38; tissue to tissue ratio at 1 h ([1]; tumor/blood, Su8686 xenograft, read-out: Tumor/blood ratio): 14.2 ± 3.89; tissue to tissue ratio at 1 h ([1]; tumor/muscle, AsPC1 xenograft, read-out: Tumor/Muscle ratio): 9.95 ± 1.49; tissue to tissue ratio at 1 h ([1]; tumor/muscle, BxPC3 xenograft, read-out: Tumor/Muscle ratio): 15.2 ± 2.14; tissue to tissue ratio at 1 h ([1]; tumor/muscle, CFPAC xenograft, read-out: Tumor/Muscle ratio): 12.1 ± 1.45; tissue to tissue ratio at 1 h ([1]; tumor/muscle, Hs766T xenograft, read-out: Tumor/Muscle ratio): 17.2 ± 2.33; tissue to tissue ratio at 1 h ([1]; tumor/muscle, Panc1005 xenograft, read-out: Tumor/Muscle ratio): 50.1 ± 10.2; tissue to tissue ratio at 1 h ([1]; tumor/muscle, Su8686 xenograft, read-out: Tumor/Muscle ratio): 58 ± 11.5; tissue to tissue ratio at 1 h ([1]; tumor/pancreas, AsPC1 xenograft, read-out: Tumor/Pancreas ratio): 6.23 ± 0.65; tissue to tissue ratio at 1 h ([1]; tumor/pancreas, BxPC3 xenograft, read-out: Tumor/Pancreas ratio): 11 ± 1.71; tissue to tissue ratio at 1 h ([1]; tumor/pancreas, CFPAC xenograft, read-out: Tumor/Pancreas ratio): 8.68 ± 1.24; tissue to tissue ratio at 1 h ([1]; tumor/pancreas, Hs766T xenograft, read-out: Tumor/Pancreas ratio): 13.8 ± 2.3; tissue to tissue ratio at 1 h ([1]; tumor/pancreas, Panc1005 xenograft, read-out: Tumor/Pancreas ratio): 26.9 ± 5.62; tissue to tissue ratio at 1 h ([1]; tumor/pancreas, Su8686 xenograft, read-out: Tumor/Pancreas ratio): 39.8 ± 7.21; Muscle uptake [2]: 0.21 ± 0.04 %ID/g; Small intestine uptake [2]: 0.51 ± 0.10 %ID/g; Brain uptake [3]: 0.04 ± 0.01 %ID/g; tissue to tissue ratio at 1 h ([4]; tumor and muscle, read-out: Tumor-to-muscle ratio): 14.8 ± 4.46; tissue to tissue ratio at 1 h ([4]; tumor and pancreas, read-out: Tumor-to-pancreas ratio): 10.3 ± 2.24
